Results published in patent US20210009959A1, “METHODS FOR ENHANCING OSTEOGENIC DIFFERENTIATION USING VITAMIN D” (priority 2019, published 2021).

What was measured:
Assay type in all cases: cell-based
[1] = test system: human adipose stem cells (hASCs); assay: hASC attachment to BCP20/80 scaffolds after calcitriol pre-treatment
Procedure: In one embodiment, a method of static culture of hASCs by pre-treatment with vitamin D3 (calcitriol) and attachment of hASCs to the scaffold used in one-step surgical procedure comprises the following steps. At one step, isolating hASCs as explained in FIG. 1. In an embodiment, the hASCs from three donors at passage 3 are used for further processing. As an optional step, the obtained hASCs are either or not incubated for a period of about 30 mins with low concentrated calcitriol of about 10 nM at room temperature. At next step, the calcitriol treated hASCs are washed twice with Phosphate Buffered Saline (PBS) to remove calcitriol. Further, the washed hASCs are centrifuged and resuspended in Dulbecco's Minimum Essential Medium (DMEM) without any supplements. At another step, the resuspended cells are seeded on the scaffold and allowed to attach to the scaffolds for a period of about 30 minutes. At next step, the scaffolds with attached cells are transferred to 12-well plates with Costar® Transwell® containers (Corning Life Sciences, Lowell, Mass., USA) containing expansion medium (DMEM) supplemented with 10% Fetal Clone I (FCI), antibiotics (1% penicillin/streptomycin/fungizone (PSF)), 50 μM ascorbic acid (Merck, Darmstadt, Germany), and 10 mM β-glycerol phosphate (Merck, Darmstadt, Germany) (PLGA/β-TCP). […]

[2] = test system: human adipose stem cells (hASCs); assay: ALP activity of hASCs seeded in BCP scaffold
Procedure: In one embodiment, a method of static culture of hASCs by pre-treatment with vitamin D3 (calcitriol) and attachment of hASCs to the scaffold used in one-step surgical procedure comprises the following steps. At one step, isolating hASCs as explained in FIG. 1. In an embodiment, the hASCs from three donors at passage 3 are used for further processing. As an optional step, the obtained hASCs are either or not incubated for a period of about 30 mins with low concentrated calcitriol of about 10 nM at room temperature.
At next step, the calcitriol treated hASCs are washed twice with Phosphate Buffered Saline (PBS) to remove calcitriol. Further, the washed hASCs are centrifuged and resuspended in Dulbecco's Minimum Essential Medium (DMEM) without any supplements. At another step, the resuspended cells are seeded on the scaffold and allowed to attach to the scaffolds for a period of about 30 minutes. At next step, the scaffolds with attached cells are transferred to 12-well plates with Costar® Transwell® containers (Corning Life Sciences, Lowell, Mass., USA) containing expansion medium (DMEM) supplemented with 10% Fetal Clone I (FCI), antibiotics (1% penicillin/streptomycin/fungizone (PSF)), 50 μM ascorbic acid (Merck, Darmstadt, Germany), and 10 mM β-glycerol phosphate (Merck, Darmstadt, Germany) (PLGA/β-TCP). At next step, the hASCs seeded scaffolds are incubated at 5% CO2 in a humidified incubator at predefined temperature of about 37° C. for a period of about 3 weeks.
Referring to FIGS. 5A and 5B, the effects of calcitriol treatment on ALP activity of hASCs, where the calcitriol pre-treatment is conducted for a short period of 30 minutes and a long period of about 3 weeks. […] The ALP activity of continuous treated cells with calcitriol is increased by 2.6-fold relative to non-treated cells after 2 weeks of culture.

[3] = test system: human adipose stem cells (hASCs); assay: ALP activity of hASCs in 3D PLGA/β-TCP scaffold, dynamic and static culture
Procedure: In one embodiment, dynamic culture of pre-treated hASCs with calcitriol, using the modified perfusion bioreactor comprises the following steps. In one embodiment, the scaffolds are 3D PLGA/β-TCP. The modified perfusion bioreactor […] comprises five scaffolds, loaded with a total of 70 ml of culture medium as shown in FIG. 2. At another step, 30 ml of the culture medium is replaced twice a week for a total period of two weeks. At another step, the culture medium in the modified perfusion bioreactor 200 is distributed to the five scaffolds with the flow rate of about 5 ml/min using the peristaltic pump 202.
In one embodiment, the method of static culture of pre-treated hASCs is continued in a flask bioreactor with the same volume of culture medium utilized in the dynamic culture. Further, the methods of culturing the hASCs are divided into different groups. In one embodiment, the methods of culturing of hASCs are divided into four groups such as, static culture of non-treated hASCs, static culture of pre-treated hASCs with calcitriol, dynamic culture of non-treated hASCs and dynamic culture of pre-treated hASCs with calcitriol.
Referring to FIG. 10, the effects of dynamic pre-treated/non-treated hASCs versus static pre-treated/non-treated hASCs on ALP activity of hASCs are disclosed, where the hASCs are seeded in 3D PLGA/β-TCP scaffold. In one embodiment, the hASCs are pre-treated with or without 10 nM calcitriol for 30 minutes and cultured in the modified perfusion bioreactor 200 (dynamic culture) and flask bioreactor (static culture). The ALP activity of hASCs after 7 days perfusion culture of pre-treated hASCs is increased by 9.2-fold compared to static culture of pre-treated hASCs, and the ALP activity of non-treated hASCs is increased by 10.3-fold compared to static culture of non-treated hASCs.
The 14 days of perfusion culture of non-treated hASCs increases ALP activity by 1.4-fold relative to static counterpart, and perfusion culture of pre-treated hASCs increases ALP activity by 2.2-fold relative to static culture of pre-treated hASCs. Moreover, calcitriol pre-treatment increases ALP activity of hASCs by 2.8-fold at day 7 and 1.3-fold at day 14 compared to non-treated hASCs in static condition. On the whole, the highest ALP activity is observed at day 7, which belongs to perfusion culture of pre-treated hASCs with calcitriol.

C=C1/C(=C\C=C2/CCC[C@]3(C)[C@@H]([C@H](C)CCCC(C)(C)O)CC[C@@H]23)C[C@@H](O)C[C@@H]1O [calcitriol, 1,25-dihydroxyvitamin D3]
cell attachment to BCP scaffolds ([1]; 30 min pre-treatment with 10 nM calcitriol (non-treated 54%)): 83%
cell attachment to BCP scaffolds, increase ([1]; 30 min pre-treatment with 10 nM calcitriol, vs non-treated cells): 1.5 fold
ALP activity, increase ([2]; 30 min pre-treatment, after 2 weeks of culture, vs non-treated cells): 18.5 fold
ALP activity, increase ([2]; 30 min pre-treatment, after 3 weeks of culture): 2.4 fold
ALP activity, increase ([2]; continuous treatment with 10 nM, after 2 weeks, vs non-treated cells): 2.6 fold
ALP activity, change ([2]; continuous treatment with 10 nM, at 3 weeks): 0.4 fold
ALP activity, increase ([3]; 7 days, perfusion culture of pre-treated hASCs vs static culture of pre-treated hASCs): 9.2 fold
ALP activity, increase ([3]; 7 days, perfusion culture of pre-treated vs perfusion culture of non-treated hASCs): 2.6 fold
ALP activity, increase ([3]; 14 days, perfusion culture of pre-treated vs static culture of pre-treated hASCs): 2.2 fold
ALP activity, increase ([3]; static condition, day 7, pre-treated vs non-treated hASCs): 2.8 fold
ALP activity, increase ([3]; static condition, day 14, pre-treated vs non-treated hASCs): 1.3 fold
